Laboratory results taken from ChEMBL document CHEMBL1817568, “Novel hybrids of fluconazole and furanones: design, synthesis and antifungal activity” (2011).
Values after ≈ are worked out from the molar mass of the structure shown. Each block holds one molecule with its values, some of them ahead of it. Active and inactive are the calls of the source. The calls are words filed in the database; no cut-off is given here.

How the values were obtained:
Pichia kudriavzevii [1] = assay: Antifungal activity against Candida krusei ATCC 6258 at 32 ug/ml by broth dilution method; format: functional, organism-based
Candida tropicalis [2] = assay: Antifungal activity against Candida tropicalis ATCC 750 at 32 ug/ml by broth dilution method; format: functional, organism-based
Aspergillus fumigatus [3] = assay: Antifungal activity against Aspergillus fumigatus ATCC 46645 at 32 ug/ml by broth dilution method; format: functional, organism-based
Candida albicans [4] = assay: Antifungal activity against Candida albicans ATCC 24433 at 32 ug/ml by broth dilution method; format: functional, organism-based
Fusarium proliferatum [5] = assay: Antifungal activity against Fusarium proliferatum ATCC 10052 at 32 ug/ml by broth dilution method; format: functional, organism-based
Aspergillus niger [6] = assay: Antifungal activity against Aspergillus niger ATCC 16404 at 32 ug/ml by broth dilution method; format: functional, organism-based
Nakaseomyces glabratus [7] = assay: Antifungal activity against Candida glabrata ATCC 90030 at 32 ug/ml by broth dilution method; format: functional, organism-based
Cryptococcus neoformans [8] = assay: Antifungal activity against Cryptococcus neoformans ATCC 34664 at 32 ug/ml by broth dilution method; format: functional, organism-based
Aspergillus niger [9] = assay: Antifungal activity against Aspergillus niger ATCC 16404 at 8 ug/ml by broth dilution method; format: functional, organism-based
Nakaseomyces glabratus [10] = assay: Antifungal activity against Candida glabrata ATCC 90030 by broth dilution method; format: functional
Candida albicans [11] = assay: Antifungal activity against Candida albicans ATCC 24433 by broth dilution method; format: functional
Fusarium proliferatum [12] = assay: Antifungal activity against Fusarium proliferatum ATCC 10052 at 8 ug/ml by broth dilution method; format: functional, organism-based
Cryptococcus neoformans [13] = assay: Antifungal activity against Cryptococcus neoformans ATCC 34664 at 8 ug/ml by broth dilution method; format: functional, organism-based
Pichia kudriavzevii [14] = assay: Antifungal activity against Candida krusei ATCC 6258 at 8 ug/ml by broth dilution method; format: functional, organism-based
Aspergillus fumigatus [15] = assay: Antifungal activity against Aspergillus fumigatus ATCC 46645 at 8 ug/ml by broth dilution method; format: functional, organism-based
Candida tropicalis [16] = assay: Antifungal activity against Candida tropicalis ATCC 750 at 8 ug/ml by broth dilution method; format: functional, organism-based
Candida tropicalis [17] = assay: Antifungal activity against Candida tropicalis ATCC 750 by broth dilution method; format: functional
Aspergillus niger [18] = assay: Antifungal activity against Aspergillus niger ATCC 16404 at 16 ug/ml by broth dilution method; format: functional, organism-based
Candida tropicalis [19] = assay: Antifungal activity against Candida tropicalis ATCC 750 at 16 ug/ml by broth dilution method; format: functional, organism-based
Fusarium proliferatum [20] = assay: Antifungal activity against Fusarium proliferatum ATCC 10052 at 16 ug/ml by broth dilution method; format: functional, organism-based
Aspergillus fumigatus [21] = assay: Antifungal activity against Aspergillus fumigatus ATCC 46645 at 16 ug/ml by broth dilution method; format: functional, organism-based
Cryptococcus neoformans [22] = assay: Antifungal activity against Cryptococcus neoformans ATCC 34664 at 16 ug/ml by broth dilution method; format: functional, organism-based
Pichia kudriavzevii [23] = assay: Antifungal activity against Candida krusei ATCC 6258 at 16 ug/ml by broth dilution method; format: functional, organism-based
Cryptococcus neoformans [24] = assay: Antifungal activity against Cryptococcus neoformans ATCC 34664 at 2 ug/ml by broth dilution method; format: functional, organism-based
Aspergillus fumigatus [25] = assay: Antifungal activity against Aspergillus fumigatus ATCC 46645 at 2 ug/ml by broth dilution method; format: functional, organism-based
Candida albicans [26] = assay: Antifungal activity against Candida albicans ATCC 24433 at 2 ug/ml by broth dilution method; format: functional, organism-based
Pichia kudriavzevii [27] = assay: Antifungal activity against Candida krusei ATCC 6258 at 2 ug/ml by broth dilution method; format: functional, organism-based
Candida tropicalis [28] = assay: Antifungal activity against Candida tropicalis ATCC 750 at 2 ug/ml by broth dilution method; format: functional, organism-based
Fusarium proliferatum [29] = assay: Antifungal activity against Fusarium proliferatum ATCC 10052 at 2 ug/ml by broth dilution method; format: functional, organism-based
Aspergillus niger [30] = assay: Antifungal activity against Aspergillus niger ATCC 16404 at 2 ug/ml by broth dilution method; format: functional, organism-based
Nakaseomyces glabratus [31] = assay: Antifungal activity against Candida glabrata ATCC 90030 at 16 ug/ml by broth dilution method; format: functional, organism-based
Candida albicans [32] = assay: Antifungal activity against Candida albicans ATCC 24433 at 16 ug/ml by broth dilution method; format: functional, organism-based
Fusarium proliferatum [33] = assay: Antifungal activity against Fusarium proliferatum ATCC 10052 at 128 ug/ml by broth dilution method; format: functional, organism-based
Candida albicans [34] = assay: Antifungal activity against Candida albicans ATCC 24433 at 128 ug/ml by broth dilution method; format: functional, organism-based
Aspergillus niger [35] = assay: Antifungal activity against Aspergillus niger ATCC 16404 at 128 ug/ml by broth dilution method; format: functional, organism-based
Candida tropicalis [36] = assay: Antifungal activity against Candida tropicalis ATCC 750 at 128 ug/ml by broth dilution method; format: functional, organism-based
Aspergillus fumigatus [37] = assay: Antifungal activity against Aspergillus fumigatus ATCC 46645 at 128 ug/ml by broth dilution method; format: functional, organism-based
Cryptococcus neoformans [38] = assay: Antifungal activity against Cryptococcus neoformans ATCC 34664 at 128 ug/ml by broth dilution method; format: functional, organism-based
Nakaseomyces glabratus [39] = assay: Antifungal activity against Candida glabrata ATCC 90030 at 128 ug/ml by broth dilution method; format: functional, organism-based
Pichia kudriavzevii [40] = assay: Antifungal activity against Candida krusei ATCC 6258 at 128 ug/ml by broth dilution method; format: functional, organism-based
Nakaseomyces glabratus [41] = assay: Antifungal activity against Candida glabrata ATCC 90030 at 2 ug/ml by broth dilution method; format: functional, organism-based
Cryptococcus neoformans [42] = assay: Antifungal activity against Cryptococcus neoformans ATCC 34664 by broth dilution method; format: functional
Fusarium proliferatum [43] = assay: Antifungal activity against Fusarium proliferatum ATCC 10052 by broth dilution method; format: functional
Aspergillus niger [44] = assay: Antifungal activity against Aspergillus niger ATCC 16404 by broth dilution method; format: functional
Aspergillus fumigatus [45] = assay: Antifungal activity against Aspergillus fumigatus ATCC 46645 by broth dilution method; format: functional
Pichia kudriavzevii [46] = assay: Antifungal activity against Candida krusei ATCC 6258 by broth dilution method; format: functional

Structure (SMILES): COc1ccc(C2=C(c3ccc(Br)cc3)COC2=O)cc1
Activity (Pichia kudriavzevii [1]): inactive | Activity (Candida tropicalis [2]): inactive | Activity (Aspergillus fumigatus [3]): inactive | Activity (Candida albicans [4]): inactive | Activity (Fusarium proliferatum [5]): inactive | Activity (Aspergillus niger [6]): inactive | Activity (Nakaseomyces glabratus [7]): inactive | Activity (Cryptococcus neoformans [8]): inactive

MIC50 (Nakaseomyces glabratus [10]): 1 µg/mL (≈ 1.8 µM) | MIC50 (Candida albicans [11]): 1 µg/mL (≈ 1.8 µM)
Structure (SMILES): COc1cc(C2=C(c3ccc(F)cc3F)COC2=O)ccc1OCC(O)(Cn1cncn1)c1ccc(F)cc1F (racemic)
Activity (Aspergillus niger [9]): inactive | Activity (Fusarium proliferatum [12]): inactive | Activity (Cryptococcus neoformans [13]): inactive | Activity (Pichia kudriavzevii [14]): inactive | Activity (Aspergillus fumigatus [15]): inactive | Activity (Candida tropicalis [16]): inactive

MIC50 (Nakaseomyces glabratus [10]): 4 µg/mL (≈ 8.43 µM) | MIC50 (Candida albicans [11]): 0.5 µg/mL (≈ 1.05 µM) | MIC50 (Candida tropicalis [17]): 8 µg/mL (≈ 16.9 µM)
Structure (SMILES): O=C1NC(=S)S/C1=C\c1ccc(OCC(O)(Cn2cncn2)c2ccc(F)cc2F)cc1 (racemic)
Activity (Pichia kudriavzevii [1]): inactive | Activity (Aspergillus fumigatus [3]): inactive | Activity (Fusarium proliferatum [5]): inactive | Activity (Aspergillus niger [6]): inactive | Activity (Cryptococcus neoformans [8]): inactive

MIC50 (Nakaseomyces glabratus [10]): 8 µg/mL (≈ 15.9 µM) | MIC50 (Candida albicans [11]): 1 µg/mL (≈ 1.98 µM)
Structure (SMILES): COc1cc(/C=C2\SC(=S)NC2=O)ccc1OCC(O)(Cn1cncn1)c1ccc(F)cc1F (racemic)
Activity (Aspergillus niger [18]): inactive | Activity (Candida tropicalis [19]): inactive | Activity (Fusarium proliferatum [20]): inactive | Activity (Aspergillus fumigatus [21]): inactive | Activity (Cryptococcus neoformans [22]): inactive | Activity (Pichia kudriavzevii [23]): inactive

Structure (SMILES): COc1cc(/C=C2\N=C(c3ccccc3)OC2=O)cc(OC)c1OCC(O)(Cn1cncn1)c1ccc(F)cc1F (racemic)
Activity (Cryptococcus neoformans [24]): inactive | Activity (Aspergillus fumigatus [25]): inactive | Activity (Candida albicans [26]): inactive | Activity (Pichia kudriavzevii [27]): inactive | Activity (Candida tropicalis [28]): inactive | Activity (Fusarium proliferatum [29]): inactive | Activity (Aspergillus niger [30]): inactive

Structure (SMILES): COc1cc(/C=C2\SC(=S)NC2=O)cc(OC)c1OCC(O)(Cn1cncn1)c1ccc(F)cc1F (racemic)
Activity (Aspergillus niger [18]): inactive | Activity (Candida tropicalis [19]): inactive | Activity (Fusarium proliferatum [20]): inactive | Activity (Aspergillus fumigatus [21]): inactive | Activity (Nakaseomyces glabratus [31]): inactive | Activity (Cryptococcus neoformans [22]): inactive | Activity (Candida albicans [32]): inactive | Activity (Pichia kudriavzevii [23]): inactive

Structure (SMILES): COc1cc(CC(=O)O)ccc1OCC(O)(Cn1cncn1)c1ccc(F)cc1F (racemic)
Activity (Fusarium proliferatum [33]): inactive | Activity (Candida albicans [34]): inactive | Activity (Aspergillus niger [35]): inactive | Activity (Candida tropicalis [36]): inactive | Activity (Aspergillus fumigatus [37]): inactive | Activity (Cryptococcus neoformans [38]): inactive | Activity (Nakaseomyces glabratus [39]): inactive | Activity (Pichia kudriavzevii [40]): inactive

Structure (SMILES): COc1ccc(C2=C(c3ccc(Br)cc3)/C(=C/c3ccc(OCC(O)(Cn4cncn4)c4ccc(F)cc4F)cc3)OC2=O)cc1 (racemic)
Activity (Cryptococcus neoformans [24]): inactive | Activity (Aspergillus fumigatus [25]): inactive | Activity (Nakaseomyces glabratus [41]): inactive | Activity (Candida albicans [26]): inactive | Activity (Pichia kudriavzevii [27]): inactive | Activity (Candida tropicalis [28]): inactive | Activity (Fusarium proliferatum [29]): inactive | Activity (Aspergillus niger [30]): inactive

MIC50 (Cryptococcus neoformans [42]): 0.5 µg/mL (≈ 0.541 µM) | MIC50 (Fusarium proliferatum [43]): 2 µg/mL (≈ 2.16 µM) | MIC50 (Aspergillus niger [44]): 0.25 µg/mL (≈ 0.271 µM) | MIC50 (Nakaseomyces glabratus [10]): 0.25 µg/mL (≈ 0.271 µM) | MIC50 (Candida albicans [11]): 0.25 µg/mL (≈ 0.271 µM) | MIC50 (Aspergillus fumigatus [45]): 0.5 µg/mL (≈ 0.541 µM) | MIC50 (Candida tropicalis [17]): 0.5 µg/mL (≈ 0.541 µM) | MIC50 (Pichia kudriavzevii [46]): 0.5 µg/mL (≈ 0.541 µM)
Structure (SMILES): C[C@@H]1[C@H](O)[C@@H](C)/C=C/C=C/C=C/C=C/C=C/C=C/C=C/[C@H](O[C@@H]2O[C@H](C)[C@@H](O)[C@H](N)[C@@H]2O)C[C@@H]2O[C@](O)(C[C@@H](O)C[C@@H](O)[C@H](O)CC[C@@H](O)C[C@@H](O)CC(=O)O[C@H]1C)C[C@H](O)[C@H]2C(=O)O [AMPHOTERICIN B]
